Values joined by “and” are separate entries in the source; they are usually repeats but may differ in a detail not shown here. Equal values may be shown once. Where a name gives a salt, the structure may show the parent alone. Square brackets hold non-standard residues; d marks the D form. Peptide text beside a SMILES is read from it. * marks the point of attachment. X2 = CC(C)[C@@H](C(=O)*)N(C)CCCCCCN1C(=O)CC(SC[C@H](N)C(=O)O)C1=O; X3 = CC(C)[C@@H](C(=O)*)N(C)CCOCCOCCOCCC(=O)NCCCC[C@H](N)C(=O)O; X4 = C[C@@H](O)[C@@H](C(=O)*)N(C)CCCCCC(=O)NCCCC[C@H](N)C(=O)O; X1 = CC(C)[C@@H](C(=O)*)N(C)CCCCCC(=O)NCCCC[C@H](N)C(=O)O; Dolaproine = CO[C@@H]([C@@H]1CCCN1)[C@@H](C)C(=O)O; Dil = CC[C@H](C)[C@H](NC)[C@@H](CC(=O)O)OC; Oxazinan2yl(1,2) = C1CCN(*)OC1
How the values were obtained:
tubulin = assay: Fluorescence-based microtubule (tubulin) polymerization assay; assay type: biochemical
Procedure: Tubulin polymerization was investigated using the “Fluorescence-based Microtubule Polymerisation Assay Kit” from Cytoskeleton (Denver, Colo., USA; order number: BK011). With this assay, GTP is added to unpolymerized tubulin, allowing polymerization to take place spontaneously. The assay is based on the binding of the fluorophore 4′,6-di-amidino-2-phenylindole (DAPI) to tubulin. Free and bound DAPI can be differentiated on the basis of different emission spectra.
[…] In addition to the buffer control, paclitaxel, with a polymerization-increasing effect, and vinblastin, with a polymerization inhibiting effect, were run additionally as assay controls. Measurement was carried out using 96-well plates with a half base area. The kinetics of the tubulin polymerization were monitored in a Fluorimeter at 37° C. for 1 hour. The excitation wavelength was 355 nm, and emission was monitored at 460 nm. For the region of linear increase within the first 10 minutes, a calculation was made of the change in fluorescence per minute (ΔF/min), which represents the polymerization rate of the microtubuli. The potency of the test substances was quantified on the basis of their respective reduction of the polymerization rate.
The reduction in the tubulin polymerization rate occurs in dependence on the concentration of the test substance added.

Caco-2 cells = assay: Caco-2 flux assay for cell permeability; assay type: in vitro ADME; settings: 2 hours, B to A
Procedure: The cell permeability of a substance can be investigated by means of in vitro testing in a flux assay using Caco-2 cells [M. D. Troutman and D. R. Thakker, Pharm. Res. 20 (8), 1210-1224 (2003)]. For this purpose, the cells were cultured for 15-16 days on 24-well filter plates. For the determination of permeation, the respective working example was applied in a HEPES buffer to the cells either apically (A) or basally (B) and incubated for 2 hours. After 0 hours and after 2 hours, samples were taken from the cis and trans compartments. The samples were separated by HPLC (Agilent 1200, Böblingen, Germany) using reverse phase columns. The HPLC system was coupled via a Turbo Ion Spray Interface to a Triple Quadropol mass spectrometer API 4000 (Applied Biosystems Applera, Darmstadt, Germany). The permeability was evaluated on the basis of a Papp value, which was calculated using the formula published by Schwab et al. [D. Schwab et al., J. Med. Chem. 46, 1716-1725 (2003)].

[1] = concentration of toxophore 1 μM
[2] = concentration of toxophore 10 μM

SMILES: CC[C@H](C)[C@@H]([C@@H](CC(=O)N1CCC[C@H]1[C@H](OC)[C@@H](C)C(=O)N[C@@H](Cc1ccccc1)C(=O)NCc1ccccc1)OC)N(C)C(=O)[C@@H](NC(=O)[C@H](C(C)C)N(C)CCCC(=O)NNC(=O)CCCCCN1C(=O)CC(SC[C@H](N)C(=O)O)C1=O)C(C)C (stereo partly drawn) [Example 69, N-(4-{2-[6-(3-{[(2R)-2-Amino-2-carboxyethyl]sulphanyl}-2,5-dioxopyrrolidin-1-yl)hexanoyl]hydrazino}-4-oxobutyl)-N-methyl-L-valyl-N-[(3R,4S,5S)-1-{(2S)-2-[(1R,2R)-3-{[(2S)-1-(benzylamino)-1-oxo-3-phenylpropan-2-yl]amino}-1-methoxy-2-methyl-3-oxopropyl]pyrrolidin-1-yl}-3-methoxy-5-methyl-1-oxoheptan-4-yl]-N-methyl-L-valinamide]
- Tubulin polymerization in the presence of toxophore in [%]. Tubulin polymerization rate at 1 μM MMAF set at 100% (tubulin; [1]): 110%

SMILES: CC[C@H](C)[C@@H]([C@@H](CC(=O)N1CCC[C@H]1[C@H](OC)[C@@H](C)C(=O)N[C@@H](Cc1c[nH]c2ccccc12)C(=O)O)OC)N(C)C(=O)[C@@H](NC(=O)[C@H](C(C)C)N(C)CCCCCC(=O)NCCCC[C@H](N)C(=O)O)C(C)C [Example 106, N-(6-{[(5S)-5-Amino-5-carboxypentyl]amino}-6-oxohexyl)-N-methyl-L-valyl-N-[(3R,4S,5S)-1-{(2S)-2-[(1R,2R)-3-{[(1S)-1-carboxy-2-(1H-indol-3-yl)ethyl]amino}-1-methoxy-2-methyl-3-oxopropyl]pyrrolidin-1-yl}-3-methoxy-5-methyl-1-oxoheptan-4-yl]-N-methyl-L-valinamide] (X1-V[Dil][Dolaproine]W-OH)
- Papp (B-A) (Caco-2 cells): 1 nm/s
- Tubulin polymerization in the presence of toxophore in [%]. Tubulin polymerization rate at 1 μM MMAF set at 100% (tubulin; [1]): 80%
- Tubulin polymerization in the presence of toxophore in [%]. Tubulin polymerization rate at 1 μM MMAF set at 100% (tubulin; [2]): 14%

SMILES: CC[C@H](C)[C@@H]([C@@H](CC(=O)N1CCC[C@H]1[C@H](OC)[C@@H](C)C(=O)N[C@@H](Cc1c[nH]c2ccccc12)C(N)=O)OC)N(C)C(=O)[C@@H](NC(=O)[C@H](C(C)C)N(C)CCCCCCN1C(=O)CC(SC[C@H](N)C(=O)O)C1=O)C(C)C (stereo partly drawn) [Example 65, N-[6-(3-{[(2R)-2-Amino-2-carboxyethyl]sulphanyl}-2,5-dioxopyrrolidin-1-yl)hexyl]-N-methyl-L-valyl-N-[(3R,4S,5S)-1-{(2S)-2-[(1R,2R)-3-{[(2S)-1-amino-3-(1H-indol-3-yl)-1-oxopropan-2-yl]amino}-1-methoxy-2-methyl-3-oxopropyl]pyrrolidin-1-yl}-3-methoxy-5-methyl-1-oxoheptan-4-yl]-N-methyl-L-valinamide] (X2-V[Dil][Dolaproine]W-NH2)
- Papp (B-A) (Caco-2 cells): 5 nm/s
- Tubulin polymerization in the presence of toxophore in [%]. Tubulin polymerization rate at 1 μM MMAF set at 100% (tubulin; [2]): 64%

SMILES: CC[C@H](C)[C@@H]([C@@H](CC(=O)N1CCC[C@H]1[C@H](OC)[C@@H](C)C(=O)N[C@@H](Cc1ccc(O)cc1)C(=O)N1CCCCO1)OC)N(C)C(=O)[C@@H](NC(=O)[C@H](C(C)C)N(C)CCCCCC(=O)NCCCC[C@H](N)C(=O)O)C(C)C [Example 117, N-(6-{[(5S)-5-Amino-5-carboxypentyl]amino}-6-oxohexyl)-N-methyl-L-valyl-N-[(3R,4S,5S)-1-{(2S)-2-[(1R,2R)-3-{[(2S)-3-(4-hydroxyphenyl)-1-(1,2-oxazinan-2-yl)-1-oxopropan-2-yl]amino}-1-methoxy-2-methyl-3-oxopropyl]pyrrolidin-1-yl}-3-methoxy-5-methyl-1-oxoheptan-4-yl]-N-methyl-L-valinamide trifluoroacetate] (X1-V[Dil][Dolaproine]Y-{Oxazinan2yl(1,2)})
- Papp (B-A) (Caco-2 cells): 1.5 nm/s
- Tubulin polymerization in the presence of toxophore in [%]. Tubulin polymerization rate at 1 μM MMAF set at 100% (tubulin; [1]): 88%
- Tubulin polymerization in the presence of toxophore in [%]. Tubulin polymerization rate at 1 μM MMAF set at 100% (tubulin; [2]): 21%

SMILES: CC[C@H](C)[C@@H]([C@@H](CC(=O)N1CCC[C@H]1[C@H](OC)[C@@H](C)C(=O)N[C@@H](Cc1c[nH]c2ccccc12)C(=O)N1CCCCO1)OC)N(C)C(=O)[C@@H](NC(=O)[C@H](C(C)C)N(C)CCOCCOCCOCCC(=O)NCCCC[C@H](N)C(=O)O)C(C)C [Example 107, N-[(18S)-18-Amino-18-carboxy-12-oxo-3,6,9-trioxa-13-azaoctadec-1-yl]-N-methyl-L-valyl-N-[(3R,4S,5S)-1-{(2S)-2-[(1R,2R)-3-{[(2S)-3-(1H-indol-3-yl)-1-(1,2-oxazinan-2-yl)-1-oxopropan-2-yl]amino}-1-methoxy-2-methyl-3-oxopropyl]pyrrolidin-1-yl}-3-methoxy-5-methyl-1-oxoheptan-4-yl]-N-methyl-L-valinamide trifluoroacetate] (X3-V[Dil][Dolaproine]W-{Oxazinan2yl(1,2)})
- Tubulin polymerization in the presence of toxophore in [%]. Tubulin polymerization rate at 1 μM MMAF set at 100% (tubulin; concentration of toxophore 1 μM, trifluoroacetate): 60% and 78%

SMILES: CC[C@H](C)[C@@H]([C@@H](CC(=O)N1CCC[C@H]1[C@H](OC)[C@@H](C)C(=O)N[C@@H](Cc1c[nH]c2ccccc12)C(=O)N1CCCCO1)OC)N(C)C(=O)[C@@H](NC(=O)[C@H]([C@@H](C)O)N(C)CCCCCC(=O)NCCCC[C@H](N)C(=O)O)C(C)C [Example 116, N-(6-{[(5S)-5-Amino-5-carboxypentyl]amino}-6-oxohexyl)-N-methyl-L-threonyl-N-[(3R,4S,5S)-1-{(2S)-2-[(1R,2R)-3-{[(2S)-3-(1H-indol-3-yl)-1-(1,2-oxazinan-2-yl)-1-oxopropan-2-yl]amino}-1-methoxy-2-methyl-3-oxopropyl]pyrrolidin-1-yl}-3-methoxy-5-methyl-1-oxoheptan-4-yl]-N-methyl-L-valinamide trifluoroacetate] (X4-V[Dil][Dolaproine]W-{Oxazinan2yl(1,2)})
- Papp (B-A) (Caco-2 cells): 1.8 nm/s

SMILES: CC[C@H](C)[C@@H]([C@@H](CC(=O)N1CCC[C@H]1[C@H](OC)[C@@H](C)C(=O)N[C@@H](Cc1c[nH]c2ccccc12)C(=O)N1CCCCO1)OC)N(C)C(=O)[C@@H](NC(=O)[C@H](C(C)C)N(C)CCCCCCN1C(=O)CC(SC[C@H](N)C(=O)O)C1=O)C(C)C (stereo partly drawn) [Example 67, N-[6-(3-{[(2R)-2-Amino-2-carboxyethyl]sulphanyl}-2,5-dioxopyrrolidin-1-yl)hexyl]-N-methyl-L-valyl-N-[(3R,4S,5S)-1-{(2S)-2-[(1R,2R)-3-{[(2S)-3-(1H-indol-3-yl)-1-(1,2-oxazinan-2-yl)-1-oxopropan-2-yl]amino}-1-methoxy-2-methyl-3-oxopropyl]pyrrolidin-1-yl}-3-methoxy-5-methyl-1-oxoheptan-4-yl]-N-methyl-L-valinamide] (X2-V[Dil][Dolaproine]W-{Oxazinan2yl(1,2)})
- Tubulin polymerization in the presence of toxophore in [%]. Tubulin polymerization rate at 1 μM MMAF set at 100% (tubulin; [2]): 35%

SMILES: CC[C@H](C)[C@@H]([C@@H](CC(=O)N1CCC[C@H]1[C@H](OC)[C@@H](C)C(=O)N[C@@H](Cc1ccc(O)cc1)C(=O)O)OC)N(C)C(=O)[C@@H](NC(=O)[C@H](C(C)C)N(C)CCCCCC(=O)NCCCC[C@H](N)C(=O)O)C(C)C [Example 118, N-(6-{[(5S)-5-Amino-5-carboxypentyl]amino}-6-oxohexyl)-N-methyl-L-valyl-N-[(3R,4S,5S)-1-{(2S)-2-[(1R,2R)-3-{[(1S)-1-carboxy-2-(4-hydroxyphenyl)ethyl]amino}-1-methoxy-2-methyl-3-oxopropyl]pyrrolidin-1-yl}-3-methoxy-5-methyl-1-oxoheptan-4-yl]-N-methyl-L-valinamide trifluoroacetate] (X1-V[Dil][Dolaproine]Y-OH)
- Tubulin polymerization in the presence of toxophore in [%]. Tubulin polymerization rate at 1 μM MMAF set at 100% (tubulin; [1]): 90%
- Tubulin polymerization in the presence of toxophore in [%]. Tubulin polymerization rate at 1 μM MMAF set at 100% (tubulin; [2]): 17%
